The values that follow come from patent US8338472B2, “Hexahydrocyclopentyl[F]indazole carboxamides and derivatives thereof as selective glucocorticoid receptor modulators” (Merck Sharp & Dohme Corp., priority 2008, dated 2012).

In general, Ki refers to a dissociation constant, usually derived from enzyme kinetics or from competition with a known ligand. Higher therefore signals weaker binding.

Assay [1] addresses T1, glucocorticoid receptor (GR) (Homo sapiens, UniProt P04150).
T1 sequence (P04150 1-777): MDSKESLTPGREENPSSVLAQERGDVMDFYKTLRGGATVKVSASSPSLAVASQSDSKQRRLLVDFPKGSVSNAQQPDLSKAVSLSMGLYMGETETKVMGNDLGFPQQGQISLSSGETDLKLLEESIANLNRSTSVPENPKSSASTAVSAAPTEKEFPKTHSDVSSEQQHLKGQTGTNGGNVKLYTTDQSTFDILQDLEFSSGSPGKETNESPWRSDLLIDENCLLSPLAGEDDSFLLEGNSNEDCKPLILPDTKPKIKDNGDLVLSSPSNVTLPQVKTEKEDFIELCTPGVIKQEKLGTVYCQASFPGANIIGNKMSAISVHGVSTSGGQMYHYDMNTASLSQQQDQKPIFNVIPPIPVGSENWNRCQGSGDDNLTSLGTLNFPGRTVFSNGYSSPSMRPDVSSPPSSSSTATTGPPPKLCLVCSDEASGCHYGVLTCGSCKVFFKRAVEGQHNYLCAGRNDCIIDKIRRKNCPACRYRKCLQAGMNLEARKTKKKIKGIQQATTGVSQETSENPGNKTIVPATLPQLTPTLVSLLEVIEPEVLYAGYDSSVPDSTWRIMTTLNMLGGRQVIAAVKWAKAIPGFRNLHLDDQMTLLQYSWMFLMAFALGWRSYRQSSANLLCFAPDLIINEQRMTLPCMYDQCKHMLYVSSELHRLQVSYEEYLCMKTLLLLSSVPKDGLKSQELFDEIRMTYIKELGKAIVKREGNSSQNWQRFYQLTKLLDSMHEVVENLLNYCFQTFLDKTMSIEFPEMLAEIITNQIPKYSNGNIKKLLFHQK
The assay is described as follows: Ligand binding assay (GR BIND), 3H-dexamethasone displacement in MDA-MB-453 cell lysate. Conditions: GR BIND Ki, Table 1.
Protocol: Binding Buffer: TEGM (10 mM Tris-HCl, 1 mM EDTA, 10% glycerol, 1 mM beta-mecaptoethanol, 10 mM Sodium Molybdate, pH 7.2)
50% HAP Slurry: Calbiochem Hydroxylapatite, Fast Flow, in 10 mM Tris, pH 8.0 and 1 mM EDTA.
Wash Buffer: 40 mM Tris, pH7.5, 100 mM KCl, 1 mM EDTA and 1 mM EGTA.
Dexmethasone-methyl-^3H, (DEX*); (Amersham cat# TRK645)
Dexamethasone(DEX) (Sigma, cat# D1756):
The cell pellet is washed twice with TEGM (10 mM Tris-HCl, 1 mM EDTA, 10% glycerol, 1 mM beta-mercaptoethanol, 10 mM Sodium Molybdate, pH 7.2). After the final wash, the cells are resuspended in TEGM at a concentration of 10^7 cells/mL. The cell suspension is snap frozen in liquid nitrogen or ethanol/dry ice bath and transferred to −80° C. freezer on dry ice. Before setting up the binding assay, the frozen samples are left on ice-water to just thaw (˜1 hr). Then the samples are centrifuged at 12,500 g to 20,000 g for 30 min at 4° C. The supernatant is used to set-up assay right away. If using 50 μL of supernatant, the test compound can be prepared in 50 μL of the TEGM buffer.
Procedure for Multiple Compound Screening
1×TEGM buffer is prepared, and the isotope-containing assay mixture is prepared in the following order: EtOH (2% final concentration in reaction), ^3H-DEX (Amersham Biosciences) and 1×TEGM. [e.g. For 100 samples, 200 μL (100×2) of EtOH+4.25 μL of 1:10 ^3H-Dex stock+2300 μL (100×23) 1×TEGM]. The compound is serially diluted, e.g., if starting final conc. is 1 μM, and the compound is in 25 μL of solution, for duplicate samples, 75 μL of 4×1 μM solution is made and 3 μL of 100 μM is added to 72 μL of buffer, and 1:5 serial dilution.
25 μL of ^3H-DEX (6 nM) trace and 25 μL compound solution are first mixed together, followed by addition of 50 μL receptor solution. The reaction is gently mixed, spun briefly at about 200 rpm and incubated at 4° C. overnight. 100 μL of 50% HAP slurry is prepared and added to the incubated reaction which is then vortexed and incubated on ice for 5 to 10 minutes. The reaction mixture is vortexed twice more to resuspend HAP while incubating reaction. The samples in 96-well format are then washed in wash buffer using The FilterMate™ Universal Harvester plate washer (Packard). The washing process transfers HAP pellet containing ligand-bound expressed receptor to Unifilter-96 GF/B filter plate (Packard). The HAP pellet on the filter plate is incubated with 50 μL of MICROSCINT (Packard) scintillint for 30 minutes before being counted on the TopCount microscintillation counter (Packard). IC50s are calculated using DEX as a reference.

A further assay deals with T2, human GR (Homo sapiens, UniProt P04150).
T2 construct: U937 cells contain an endogenous glucocorticoid receptor (GR); endogenous in cells; host or cells: U937 cells stably transfected with the TNF-alpha promoter/beta-lactamase reporter
T2 sequence (P04150 1-777): T1 sequence (P04150 1-777)
The assay is described as follows: Transrepression Assay (GITAR), TNFα-β-lactamase reporter gene in U937 cells. Conditions: for GITAR Greater than by GRAMMER % SEP: GITAR Emax minus GRAMMER Emax; for EC50: inflection point, U937 cells, read-out: Transrepression U937 Cells GITAR IP. The format is cell-based. In short, it runs like this:
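Repression of PMA (5 ng/ml final)/LPS (100 ng/ml final)-induced TNF-α promoter activity, read as β-lactamase cleavage of CCF2-AM, in stably transfected U937 cells expressing native GR. Compound added 30-45 min before stimulation, overnight (~18 hr) 37° C; normalized to 100 nM dexamethasone (100%).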

For a further assay, the target named is T3, Glucocorticoid Receptor (Homo sapiens, UniProt P04150).
T3 construct: These cells express large amount of the GR and are very responsive to GC treatment; endogenous in cells; host or cells: A549 cells transiently transfected with the MMTV-LUC reporter
T3 sequence (P04150 1-777): T1 sequence (P04150 1-777)
The assay is described as follows: Trans-Activation Modulation of Glucocorticoid Receptor (GRAMMER), MMTV-LUC reporter gene in A549 cells. It counts as cell-based. Conditions: Table 1; for Emax: A549, A549 cells, Emax relative to 300 nM dexamethasone, read-out: Transactivation A549 Cells GRAMMER Emax; for EC50: inflection point, A549 cells, read-out: Transactivation A549 Cells GRAMMER IP. The method in brief:
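Luciferase from a transiently transfected MMTV-LUC reporter was measured after 24 h compound exposure (≤1% DMSO) in A549 or MDA-MB-453 cells. For antagonism, the decrease of 10 nM dexamethasone-induced signal was calculated. For agonism, Emax was referenced to 300 nM dexamethasone.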
(In a reporter assay the amount or activity of a reporter protein is the signal.)

[2] abbreviates: U-937, U937 cells, activity repressed by 100 nM dexamethasone = 100%, Table 1, read-out: Transrepression U937 Cells GITAR Emax.
[3] abbreviates: U-937, text statement, 100 nM dexamethasone = 100%, read-out: maximal activity in the transrepression assay (GITAR).

Where two headings read alike, the source gives them in different places.

The molecule `C[C@]12Cc3cnn(-c4ccc(F)cc4)c3C=C1CC[C@@H]2C(=O)Nc1ccccc1S(N)(=O)=O` [Compound 23, (4αR,5S)-N-[2-(aminosulfonyl)phenyl]-1-(4-fluorophenyl)-4α-methyl-1,4,4α,5,6,7-hexahydrocyclopenta[f]indazole-5-carboxamide] returned a Ki in assay [1] of 19.4 nM. In addition, the “GITAR Greater than by GRAMMER % SEP” value on human GR (Table 1) is on record as 14.2%. The Emax was 18% at human GR (setting [2]), above 5% at human GR (setting [3]) and 3.8% on Glucocorticoid Receptor. For the same molecule, the EC50 at human GR (Table 1) came out at 1700 nM; at Glucocorticoid Receptor it was 45.4 nM.
As for `CCNC(=O)CN(CCc1ccccc1)C(=O)[C@H]1CCC2=Cc3c(cnn3-c3ccc(F)cc3)C[C@@]21C` [Compound 24, (4αR,5S)-N-[2-(ethylamino)-2-oxoethyl]-1-(4-fluorophenyl)-4α-methyl-N-(2-phenylethyl)-1,4,4α,5,6,7-hexahydrocyclopenta[f]indazole-5-carboxanide], in assay [1], the inhibition constant (Ki) worked out at 4.7 nM. Further, on human GR (Table 1), the “GITAR Greater than by GRAMMER % SEP” value was found to be 5.3%. For the same molecule, the results for the Emax on human GR (setting [2]), on human GR (setting [3]) and on Glucocorticoid Receptor were 14.5%, above 5% and 9.2%, respectively. The EC50 on human GR (Table 1) stood at 405 nM; at Glucocorticoid Receptor, 615 nM.
On to `C[C@]12Cc3cnn(-c4ccc(F)cc4)c3C=C1CC[C@@H]2C(=O)N(CCO)Cc1ccccc1F` [Compound 25, (4α,5S)-N-(2-fluorobenzyl)-1-(4-fluorophenyl)-N-(2-hydroxyethyl)-4α-methyl-1,4,4α,5,6,7-hexahydrocyclopenta[f]indazole-5-carboxamide], for which, in assay [1], the Ki stood at 12.5 nM. Moreover, the “GITAR Greater than by GRAMMER % SEP” value on human GR (Table 1) worked out at 38.7%. Besides, the Emax on human GR (setting [2]) was 48%; at human GR (setting [3]), above 5%; at Glucocorticoid Receptor, 9.3%. The values for the EC50 on human GR (Table 1) and on Glucocorticoid Receptor were 2740 nM and 1440 nM, respectively.
As to `CCCCN(CCO)C(=O)[C@H]1CCC2=Cc3c(cnn3-c3ccc(F)cc3)C[C@@]21C` [Compound 26, (4αR,5S)-N-butyl-1-(4-fluorophenyl)-N-(2-hydroxyethyl)-4α-methyl-1,4,4α,5,6,7-hexahydrocyclopenta[f]indazole-5-carboxamide], the Ki in assay [1] was 16.4 nM. For the same molecule, the “GITAR Greater than by GRAMMER % SEP” value on human GR (Table 1) worked out at 44.1%. The Emax was 83.4% on human GR (setting [2]), above 5% on human GR (setting [3]) and 39.3% at Glucocorticoid Receptor. Further, the EC50 at human GR (Table 1) turned out to be 809 nM; at Glucocorticoid Receptor, 812 nM.
Regarding `Cc1ccc(CN(CCO)C(=O)[C@H]2CCC3=Cc4c(cnn4-c4ccc(F)cc4)C[C@@]32C)cc1F` [Compound 27, (4αR,5S)-N-(3-fluoro-4-methylbenzyl)-1-(4-fluorophenyl)-N-(2-hydroxyethyl)-4α-methyl-1,4,4α,5,6,7-hexahydrocyclopenta[f]indazole-5-carboxamide], in assay [1], the Ki came to 13.9 nM. Besides, on human GR (Table 1), the “GITAR Greater than by GRAMMER % SEP” value turned out to be 45.6%. Also, the figures for the Emax on human GR (setting [2]), on human GR (setting [3]) and at Glucocorticoid Receptor were 55.8%, above 5% and 10.2%, respectively. Also, the EC50 on human GR (Table 1) came to 1620 nM; on Glucocorticoid Receptor, 2160 nM.
Consider `C[C@]12Cc3cnn(-c4ccc(F)cc4)c3C=C1CC[C@@H]2C(=O)N(CCO)Cc1cc(F)c(F)c(F)c1` [Compound 28, (4αR,5S)-1-(4-fluorophenyl)-N-(2-hydroxyethyl)-4α-methyl-N-(3,4,5-trifluorobenzyl)-1,4,4α,5,6,7-hexahydrocyclopenta[f] indazole-5-carboxamide], for which the affinity in assay [1], expressed as Ki, was 8.9 nM. Also, the “GITAR Greater than by GRAMMER % SEP” value on human GR (Table 1) stood at 45.4%. For the same molecule, the results for the Emax on human GR (setting [2]), on human GR (setting [3]) and on Glucocorticoid Receptor were 56%, above 5% and 10.6%, respectively. In addition, the results for the EC50 on human GR (Table 1) and at Glucocorticoid Receptor were 1290 nM and 1220 nM, respectively.
In assay [1], `C[C@]12Cc3cnn(-c4ccc(F)cc4)c3C=C1CC[C@@H]2C(=O)N(CCO)CC(=O)c1coc2ccccc12` [Compound 29, (4αR,5S)-N-[2-(1-benzofuran-3-yl)-2-oxoethyl]-1-(4-fluorophenyl)-N-(2-hydroxyethyl)-4α-methyl-1,4,4α,5,6,7-hexahydrocyclopenta[f]indazole-5-carboxamide] registered a Ki of 39.1 nM. In addition, the “GITAR Greater than by GRAMMER % SEP” value on human GR (Table 1) was found to be 29.8%. The Emax is 32.5% at human GR (setting [2]), above 5% at human GR (setting [3]) and 2.7% at Glucocorticoid Receptor. Further, the EC50 was determined as 1840 nM at human GR (Table 1) and 3290 nM at Glucocorticoid Receptor.
`C[C@]12Cc3cnn(-c4ccc(F)cc4)c3C=C1CC[C@@H]2C(=O)N(CCO)Cc1ccccc1CS(=O)(=O)c1ccccc1` [Compound 30, (4αR,5S)-1-(4-fluorophenyl)-N-(2-hydroxyethyl)-4α-methyl-N-{2-[(phenylsulfonyl)methyl]benzyl}-1,4,4α,5,6,7-hexahydrocyclopenta[f] carboxamide] came in with a Ki in assay [1] of 12.2 nM. In addition, the “GITAR Greater than by GRAMMER % SEP” value on human GR (Table 1) is 31.2%. Moreover, the Emax at human GR (setting [2]) is 35.5%; at human GR (setting [3]), above 5%; on Glucocorticoid Receptor it was 4.3%. In addition, the figures for the EC50 at human GR (Table 1) and at Glucocorticoid Receptor were 1080 nM and 1110 nM, respectively.
For the molecule `C[C@]12Cc3cnn(-c4ccc(F)cc4)c3C=C1CC[C@@H]2C(=O)N(CCO)Cc1csc2ccc(Cl)cc12` [Compound 31, (4αR,5S)-N-[(5-chloro-1-benzothien-3-yl)methyl]-1-(4-fluorophenyl)-N-(2-hydroxyethyl)-4α-methyl-1,4,4α,5,6,7-hexahydrocyclopenta[f]indazole-5-carboxamide], affinity in assay [1] was put at a Ki of 7.9 nM. Further, the “GITAR Greater than by GRAMMER % SEP” value at human GR (Table 1) was found to be 12.9%. In addition, the Emax was 15.5% on human GR (setting [2]), above 5% on human GR (setting [3]) and 2.6% at Glucocorticoid Receptor. The figures for the EC50 at human GR (Table 1) and at Glucocorticoid Receptor were 1230 nM and 359 nM, respectively.
The molecule `C[C@]12Cc3cnn(-c4ccc(F)cc4)c3C=C1CC[C@@H]2C(=O)N(CCO)Cc1cc(F)cc(F)c1` [Compound 32, (4αR,5S)-N-(3,5-difluorobenzyl)-1-(4-fluorophenyl)-N-(2-hydroxyethyl)-4α-methyl-1,4,4α,5,6,7-hexahydrocyclopenta[f]indazole-5-carboxamide] yielded a Ki in assay [1] of 11.1 nM. The “GITAR Greater than by GRAMMER % SEP” value at human GR (Table 1) was determined as 47.1%. Besides, the Emax at human GR (setting [2]) is 64.3%; at human GR (setting [3]), above 5%; at Glucocorticoid Receptor, 17.1%. For the same molecule, the figures for the EC50 on human GR (Table 1) and on Glucocorticoid Receptor were 1030 nM and 872 nM, respectively.
`C[C@]12Cc3cnn(-c4ccc(F)cc4)c3C=C1CC[C@@H]2C(=O)N(CCO)Cc1cccc(F)c1` [Compound 33, (4αR,5S)-N-(3-fluorobenzyl)-1-(4-fluorophenyl)-N-(2-hydroxyethyl)-4α-methyl-1,4,4α,5,6,7-hexahydrocyclopenta[f]indazole-5-carboxamide] gave a Ki in assay [1] of 7.7 nM. The “GITAR Greater than by GRAMMER % SEP” value at human GR (Table 1) is given as 44.1%. Besides, the Emax is 56.3% on human GR (setting [2]), above 5% at human GR (setting [3]) and 12.2% at Glucocorticoid Receptor. The figures for the EC50 at human GR (Table 1) and on Glucocorticoid Receptor were 1520 nM and 901 nM, respectively.
Molecule `COc1cc(CN(CCO)C(=O)[C@H]2CCC3=Cc4c(cnn4-c4ccc(F)cc4)C[C@@]32C)cc(OC)c1` [Compound 34, (4αR,5S)-N-(3,5-dimethoxybenzyl)-1-(4-fluorophenyl)-N-(2-hydroxyethyl)-4α-methyl-1,4,4α,5,6,7-hexahydrocyclopenta[f]indazole-5-carboxamide] had a Ki in assay [1] of 12 nM. For the same molecule, the “GITAR Greater than by GRAMMER % SEP” value at human GR (Table 1) came out at 44.1%. The Emax at human GR (setting [2]) was 66.3%; on human GR (setting [3]) it was above 5%; at Glucocorticoid Receptor it was 22.2%. Further, the EC50 was 644 nM at human GR (Table 1) and 1510 nM on Glucocorticoid Receptor.
